Reference: PMC4701715 (Current Therapeutic Research, Clinical and Experimental, 2015)

Experiments:
Assay type in all cases: cell-based
rat GCGr [1] = target: T1, rat GCGr (Rattus norvegicus, UniProt P30082); assay: Rat GCGr antagonism study: cAMP in the presence of 0.1 nM glucagon; details: n = 3
T1 construct: host or cells: Chinese hamster ovary-K1 cells
Procedure: Postincubation, medium was removed and cells lysed with 120 µL/well of 0.1 M hydrochloride + 0.5% nonionic, octylphenol ethoxylate surfactant. cAMP levels were measured using an indirect ELISA according to the manufacturer’s instructions (ADI-900-066, Enzo Life Sciences, United Kingdom), optical density was read at 405 nm on a Biotek ELx808 (Wolf Laboratories, York, United Kingdom). Data were plotted and […] efficacy values calculated.

rat GCGr [2] = target: T1, rat GCGr; assay: cAMP accumulation in CHO-K1 cells overexpressing the rat GCGr; details: CHO cells overexpressing rGCGr; 30 min incubation, room temperature, 1 mM IBMX; cAMP ELISA; mean, n = 3
Procedure: (§1) All cell culture reagents were obtained from Invitrogen (Life Technologies Ltd, Paisley, United Kingdom) unless otherwise stated. Chinese hamster ovary-K1 cells overexpressing the rat GCGr were routinely maintained in Dulbecco’s modified eagle medium (DMEM) with 25 mM glucose and 1 mM sodium pyruvate supplemented with 10% fetal bovine serum, 25 mM hydroxyethyl piperazineethanesulfonic acid, 1% antibiotic (100 U/mL penicillin and 100 µg/mL streptomycin), and 1 × nonessential amino acids. Chinese hamster lung cells overexpressing the rat GLP-1r were maintained in the same DMEM but without additional hydroxyethyl piperazineethanesulfonic acid or nonessential amino acids.
(§2) Levels of cAMP accumulation was measured in Chinese hamster ovary-K1 cells overexpressing the rat GCGr (cDNA from Origene, Cambridge Bioscience, Cambridge, United Kingdom) or Chinese hamster lung cells overexpressing the rat GLP-1r (a gift from Bernard Thorens, University of Lausanne, Switzerland). […]
(§3) Data were plotted and in vivo efficacy values calculated.
(§4) cAMP in vitro efficacy and binding in vitro affinity were calculated using nonlinear regression with Prism version 5 software (GraphPad Software Inc, San Diego, California). Differences in cumulative food intake and body weight were analyzed using 1-way ANOVA and post hoc tests with Dunnett or Bonferroni correction (Prism version 5 software). […]

rat GLP-1r = target: T2, rat GLP-1r (Rattus norvegicus, UniProt P32301); assay: cAMP accumulation in Chinese hamster lung cells overexpressing the rat GLP-1r; details: Chinese hamster lung cells overexpressing rGLP-1r; 30 min incubation, room temperature, 1 mM IBMX; cAMP ELISA; mean, n = 3
T2 construct: expressed in transfected cells; host or cells: Chinese hamster lung cells
T2 sequence (P32301 22-463): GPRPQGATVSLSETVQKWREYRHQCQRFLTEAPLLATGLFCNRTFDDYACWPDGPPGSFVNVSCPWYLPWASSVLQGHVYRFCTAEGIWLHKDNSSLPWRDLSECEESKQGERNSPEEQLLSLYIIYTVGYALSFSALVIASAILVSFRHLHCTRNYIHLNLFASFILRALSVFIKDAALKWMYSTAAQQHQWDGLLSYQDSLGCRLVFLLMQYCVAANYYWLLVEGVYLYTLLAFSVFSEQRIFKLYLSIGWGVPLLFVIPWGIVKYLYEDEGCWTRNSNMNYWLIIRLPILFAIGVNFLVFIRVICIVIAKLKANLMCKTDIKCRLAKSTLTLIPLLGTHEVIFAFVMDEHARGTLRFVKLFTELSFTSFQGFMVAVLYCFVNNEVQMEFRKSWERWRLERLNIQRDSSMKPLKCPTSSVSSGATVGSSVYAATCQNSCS
Procedure: as §1, §2, §3, §4

T1 sequence (P30082 27-485): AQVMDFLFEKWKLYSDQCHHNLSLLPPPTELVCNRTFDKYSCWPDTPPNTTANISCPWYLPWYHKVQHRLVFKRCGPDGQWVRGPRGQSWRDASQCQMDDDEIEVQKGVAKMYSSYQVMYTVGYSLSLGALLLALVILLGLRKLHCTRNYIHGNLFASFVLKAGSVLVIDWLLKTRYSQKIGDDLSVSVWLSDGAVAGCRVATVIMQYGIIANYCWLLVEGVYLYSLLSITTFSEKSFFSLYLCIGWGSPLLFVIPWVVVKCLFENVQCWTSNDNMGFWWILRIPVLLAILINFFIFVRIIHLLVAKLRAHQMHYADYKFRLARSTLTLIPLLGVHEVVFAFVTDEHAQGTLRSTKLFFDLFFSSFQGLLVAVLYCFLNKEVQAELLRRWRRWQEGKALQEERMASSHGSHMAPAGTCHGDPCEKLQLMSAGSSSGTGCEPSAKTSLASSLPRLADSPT

SMILES: CC[C@H](C)[C@H](NC(=O)[C@H](CC(N)=O)NC(=O)[C@H](CC(N)=O)NC(=O)[C@H](CCCNC(=N)N)NC(=O)[C@H](CC(N)=O)NC(=O)[C@H](CCCNC(=N)N)NC(=O)[C@H](CCCCN)NC(=O)[C@@H](NC(=O)[C@H](CC(N)=O)NC(=O)[C@H](CCSC)NC(=O)[C@H](CC(C)C)NC(=O)[C@H](Cc1c[nH]c2ccccc12)NC(=O)[C@H](CCC(N)=O)NC(=O)[C@@H](NC(=O)[C@H](Cc1ccccc1)NC(=O)[C@H](CC(=O)O)NC(=O)[C@H](CCC(N)=O)NC(=O)[C@H](C)NC(=O)[C@H](CCCNC(=N)N)NC(=O)[C@H](CCCNC(=N)N)NC(=O)[C@H](CO)NC(=O)[C@H](CC(=O)O)NC(=O)[C@H](CC(C)C)NC(=O)[C@H](Cc1ccc(O)cc1)NC(=O)[C@H](CCCCN)NC(=O)[C@H](CO)NC(=O)[C@H](Cc1ccc(O)cc1)NC(=O)[C@H](CC(=O)O)NC(=O)[C@H](CO)NC(=O)[C@@H](NC(=O)[C@H](Cc1ccccc1)NC(=O)[C@@H](NC(=O)CNC(=O)[C@H](CCC(=O)O)NC(=O)[C@H](CO)NC(=O)[C@@H](N)Cc1c[nH]cn1)[C@@H](C)O)[C@@H](C)O)C(C)C)[C@@H](C)O)C(=O)N[C@@H](C)C(=O)O [OXME3]
- increase of cAMP levels compared with glucagon stimulation alone (rat GCGr [1]; 30 nM peptide with 0.1 nM glucagon): 9%
- decrease of glucagon-mediated cAMP accumulation, mean (rat GCGr [1]; all concentrations tested except 30 nM, with 0.1 nM glucagon, relative to glucagon alone): 40.3%
- EC50 (rat GCGr [2]): 160 nM
- EC50 (rat GLP-1r): 8.1 nM
